# Assay results: patent publication US10696637B2, “Nitrogen-containing heterocyclic compound” (FUJIFILM Corporation, priority 2015, dated 2020)
# Tested on: CXCL10 production
# Test: CXCL10 production inhibition test
# Type: cell-based
# Settings: Endothelial cell; test compound 0.1 μmol/L; human umbilical vein-derived endothelial cells; TNFα 10 ng/mL; supernatant 72 hours after stimulation; ELISA; read-out: Rate of inhibition of CXCL10 production
# Protocol: (CXCL10 Production Inhibition Test)
# 0.5×10^4 or 1×10^4 human umbilical vein-derived endothelial cells were suspended in 100 μL of an EGM-2 BulletKit medium (without GA) or a Medium-200 medium supplemented with an EGM-2 SingleQuots kit (without GA), inoculated to a 96-well plate and cultured overnight. 100 μL of a solution of each test compound diluted with the same medium as that used in the inoculation was added to the cultured cells (final concentration of the test compound: 0.1 μmol/L). 1 hour thereafter, TNFα was added thereto at a final concentration of 10 ng/mL. 72 hours after the stimulation, the supernatant was recovered, and the amount of CXCL10 produced in the culture supernatant was determined using an ELISA kit (Peprotech, 900-109).
# The rate of inhibition was calculated according to the following expression: Rate of inhibition (%)=100−(Amount of CXCL10 produced in the presence of the test compound/Amount of CXCL10 produced in the absence of the test compound)×100
row,SMILES,inhibition at 0.1 µM [%]
1,"CCn1c(=O)cc(N2CCOCC2)c2cc(-n3c(-c4ccccc4)cn(CCN(C)C)c3=O)ccc21 [Example 261, 6-(3-(2-(dimethylamino)ethyl)-2-oxo-5-phenyl-2,3-dihydro-1H-imidazol-1-yl)-1-ethyl-4-(morpholin-4-yl)quinolin-2(1H)-one]",≥ 50
2,"CCn1c(=O)cc(C2CC2)c2cc(-n3c(-c4ccc(C)cc4)c[nH]c3=O)ccc21 [Example 276, 4-cyclopropyl-1-ethyl-6-(5-(4-methylphenyl)-2-oxo-2,3-dihydro-1H-imidazol-1-yl)quinolin-2(1H)-one]",≥ 50
3,"CCn1c(=O)cc(N2CCOCC2)c2cc(-c3cccnc3-c3ccccc3)ccc21 [Example 279, 1-ethyl-4-(morpholin-4-yl)-6-(2-phenylpyridin-3-yl)quinolin-2(1H)-one]",≥ 50
4,"CCn1c(=O)cc(C2CCN(C)CC2)c2cc(C(=O)N(C)c3ccc4c(c3)CCC4)ccc21 [Example 17, N-(2,3-dihydro-1H-inden-5-yl)-1-ethyl-N-methyl-4-(1-methylpiperidin-4-yl)-2-oxo-1,2-dihydroquinoline-6-carboxamide]",≥ 50
5,"CCn1c(=O)cc(C2CC2)c2cc(-n3c(-c4ccc(Cl)cc4)cn(C)c3=O)ccc21 [Example 269, 6-(5-(4-chlorophenyl)-3-methyl-2-oxo-2,3-dihydro-1H-imidazol-1-yl)-4-cyclopropyl-1-ethylquinolin-2(1H)-one]",≥ 50
6,"CCn1c(=O)cc(N2CCOCC2)c2cc(N(C)C(=O)c3ccc(Cl)cc3)ccc21 [Example 250, 4-chloro-N-(1-ethyl-4-(morpholin-4-yl)-2-oxo-1,2-dihydroquinolin-6-yl)-N-methylbenzamide]",≥ 50
7,CCn1c(=O)cc(C2CC2)c2cc(-c3nc(C)nn3-c3ccccc3)ccc21 [Example 252],≥ 50
8,CCn1c(=O)cc(N2CCOCC2)c2cc(-n3c(-c4ccc(C)cc4)c[nH]c3=O)ccc21 [Example 274],≥ 50
9,"CCn1c(=O)cc(C2CC2)c2cc(-n3c(=O)[nH]c(=O)n3-c3ccccc3)ccc21 [Example 248, 1-(4-cyclopropyl-1-ethyl-2-oxo-1,2-dihydroquinolin-6-yl)-2-phenyl-1,2,4-triazolidine-3,5-dione]",≥ 50
10,"CCn1c(=O)cc(N2CCOCC2)c2cc(-n3c(-c4ccc(C(F)(F)F)cc4)c[nH]c3=O)ccc21 [Example 272, 1-ethyl-6-(2-oxo-5-(4-(trifluoromethyl)phenyl)-2,3-dihydro-1H-imidazol-1-yl)-4-(morpholin-4-yl)quinolin-2(1H)-one]",≥ 50
11,"CCn1c(=O)cc(N2CCOCC2)c2cc(-n3c(-c4ccc(Cl)cc4)c[nH]c3=O)ccc21 [Example 245, 6-(5-(4-chlorophenyl)-2-oxo-2,3-dihydro-1H-imidazol-1-yl)-1-ethyl-4-(morpholin-4-yl)quinolin-2(1H)-one]",≥ 50
12,"CCn1c(=O)cc(C2CC2)c2cc(-c3cccnc3-c3ccccc3)ccc21 [Example 278, 4-cyclopropyl-1-ethyl-6-(2-phenylpyridin-3-yl)quinolin-2(1H)-one]",≥ 50
13,"CCn1c(=O)cc(C2CCN(C)CC2)c2cc(C(=O)N(C)c3ccc(C)cc3)ccc21 [Example 14, 1-ethyl-N-methyl-N-(4-methylphenyl)-4-(1-methylpiperidin-4-yl)-2-oxo-1,2-dihydroquinoline-6-carboxamide]",≥ 50
14,"CCn1c(=O)cc(C2CC2)c2cc(N(C)C(=O)c3ccccc3)ccc21 [Example 2, N-(4-cyclopropyl-1-ethyl-2-oxo-1,2-dihydroquinolin-6-yl)-N-methylbenzamide]",≥ 50
15,"CCn1c(=O)cc(N2CCOCC2)c2cc(-n3c(-c4ccccc4)cn(C(C)C)c3=O)ccc21 [Example 247, 1-ethyl-4-(morpholin-4-yl)-6-(2-oxo-5-phenyl-3-(propan-2-yl)-2,3-dihydro-1H-imidazol-1-yl)quinolin-2(1H)-one]",≥ 50
16,"CCn1c(=O)cc(C2CCN(C)CC2)c2cc(C(=O)N(C)c3ccc(C)c(Cl)c3)ccc21 [Example 293, N-(3-chloro-4-methylphenyl)-1-ethyl-N-methyl-4-(1-methylpiperidin-4-yl)-2-oxo-1,2-dihydroquinoline-6-carboxamide]",≥ 50
17,"CCn1c(=O)cc(N2CCOCC2)c2cc(-n3c(-c4ccc(C)cc4)cn(C)c3=O)ccc21 [Example 273, 1-ethyl-6-(3-methyl-5-(4-methylphenyl)-2-oxo-2,3-dihydro-1H-imidazol-1-yl)-4-(morpholin-4-yl)quinolin-2(1H)-one]",≥ 50

row,SMILES,inhibition at 0.1 µM [%]
1,"CCn1c(=O)cc(C2CC2)c2cc(-n3c(=O)cc(C)n3-c3ccccc3)ccc21 [Example 282a, 4-cyclopropyl-1-ethyl-6-(3-methyl-5-oxo-2-phenyl-2,5-dihydro-1H-pyrazol-1-yl)quinolin-2(1H)-one]",≥ 50
2,"CCn1c(=O)cc(C2CC2)c2cc(-c3nccnc3-c3ccccc3)ccc21 [Example 284, 4-cyclopropyl-1-ethyl-6-(3-phenylpyradin-2-yl)quinolin-2(1H)-one]",≥ 50
3,"CCn1c(=O)cc(C2CC2)c2cc(-n3c(-c4ccc(C(F)(F)F)cc4)cn(C)c3=O)ccc21 [Example 267, 4-cyclopropyl-1-ethyl-6-(3-methyl-2-oxo-5-(4-(trifluoromethyl)phenyl)-2,3-dihydro-1H-imidazol-1-yl)quinolin-2(1H)-one]",≥ 50
4,"CCn1c(=O)cc(C2CC2)c2cc(-n3c(-c4ccc(C(F)(F)F)cc4)c[nH]c3=O)ccc21 [Example 268, 4-cyclopropyl-1-ethyl-6-(2-oxo-5-(4-(trifluoromethyl)phenyl)-2,3-dihydro-1H-imidazol-1-yl)quinolin-2(1H)-one]",≥ 50
5,"CCC1C(=O)N(c2ccccc2)N(c2ccc3c(c2)c(C2CC2)cc(=O)n3CC)C1=O (stereo not shown) [Example 281, 1-(4-cyclopropyl-1-ethyl-2-oxo-1,2-dihydroquinolin-6-yl)-4-ethyl-2-phenylmazolidine-3,5-dione]",≥ 50
6,"CCN1CCC(c2cc(=O)n(CC)c3ccc(C(=O)N(C)c4ccccc4)cc23)CC1 [Example 8, 1-ethyl-4-(1-ethylpiperidin-4-yl)-N-methyl-2-oxo-N-phenyl-1,2-dihydroquinoline-6-carboxamide]",≥ 50
7,"CCn1c(=O)cc(C2CC2)c2cc(-n3c(-c4ccc(C)cc4)cn(C)c3=O)ccc21 [Example 275, 4-cyclopropyl-1-ethyl-6-(3-methyl-5-(4-methylphenyl)-2-oxo-2,3-dihydro-1H-imidazol-1-yl)quinolin-2(1H)-one]",≥ 50
8,"CCn1c(=O)cc(N2CCOCC2)c2cc(-n3c(-c4ccc(Cl)cc4)cn(C)c3=O)ccc21 [Example 246, 6-(5-(4-chlorophenyl)-3-methyl-2-oxo-2,3-dihydro-1H-imidazol-1-yl)-1-ethyl-4-(morpholin-4-yl)quinolin-2(1H)-one]",≥ 50
9,"CCn1c(=O)cc(C2CCN(C)CC2)c2cc(C(=O)N(C)c3ccc(C)c(F)c3)ccc21 [Example 292, 1-ethyl-N-(3-fluoro-4-methylphenyl)-N-methyl-4-(1-methylpiperidin-4-yl)-2-oxo-1,2-dihydroquinoline-6-carboxamide]",≥ 50
10,"CCn1c(=O)cc(N2CCOCC2)c2cc(-n3c(-c4ccccc4)cn(CCO)c3=O)ccc21 [Example 262, 1-ethyl-6-(3-(2-hydroxyethyl)-2-oxo-5-phenyl-2,3-dihydro-1H-imidazol-1-yl)-4-(morpholin-4-yl) quinolin-2(1H)-one]",≥ 50
11,"CCn1c(=O)cc(C2CC2)c2cc(N3C(=O)CC[C@H]3c3ccccc3)ccc21 [Example 254, 4-cyclopropyl-1-ethyl-6-((5S)-2-oxo-5-phenylpyrrolidin-1-yl)quinolin-2(1H)-one]",≥ 50
12,"CCn1c(=O)cc(C2CC2)c2cc(-n3c(-c4ccc(Cl)cc4)c[nH]c3=O)ccc21 [Example 271, 6-(5-(4-chlorophenyl)-2-oxo-2,3-dihydro-1H-imidazol-1-yl)-cyclopropyl-1-ethylquinolin-2(1H)-one]",≥ 50
13,"CCn1c(=O)cc(C2CC2)c2cc(N3C(=O)C(C)C(=O)N3c3ccccc3)ccc21 (stereo not shown) [Example 280, 1-(4-cyclopropyl-1-ethyl-2-oxo-1,2-dihydroquinolin-6-yl)-4-methyl-2-phenylpyrazolidine-3,5-dione]",≥ 50
14,"CCn1c(=O)cc(N2CCOCC2)c2cc(-n3c(-c4ccccc4)cn(CCN4CCOCC4)c3=O)ccc21 [Example 260, 1-ethyl-4-(morpholin-4-yl)-6-(3-(2-(morpholin-4-yl)ethyl)-2-oxo-5-phenyl-2,3-dihydro-1H-imidazol-1-yl)quinolin-2(1H)-one]",≥ 50
15,"CCn1c(=O)cc(C2CC2)c2cc(-n3c(C)cc(=O)n3-c3ccccc3)ccc21 [Example 282b, 4-cyclopropyl-1-ethyl-6-(5-methyl-3-oxo-2-phenyl-2,3-dihydro-1H-pyrazol-1-yl)quinolin-2(1H)-one]",≥ 50
16,"CCn1c(=O)cc(N2CCOCC2)c2cc(-n3cc(C)nc3-c3ccccc3)ccc21 [Example 256, 1-ethyl-6-(4-methyl-2-phenyl-1H-imidazol-1-yl)-4-(morpholin-4-yl)quinolin-2(1H)-one]",≥ 50
17,"CCn1c(=O)cc(C2CCC(O)CC2)c2cc(C(=O)N(C)c3ccc(Cl)cc3)ccc21 (stereo not shown) [Example 286, N-(4-chlorophenyl)-1-ethyl-4-(4-hydroxycyclohexyl)-N-methyl-2-oxo-1,2-dihydroquinoline-6-carboxamide]",≥ 50
